Patent US20170088822A1 (priority 2015, published 2017)
Several values for one entry are separate records, joined by “and”; a condition that tells them apart may be missing. Equal values may be shown once.

How the values were obtained:
BpmFabI [1] = type: biochemical, Burkholderia pseudomallei
[2] = system: drug resistant staphylococci including MRSA and MRSE; settings: cited from earlier work
BpmFabI [3] = type: binding, Burkholderia pseudomallei
S. aureus = settings: cited from earlier work

Q: For AFN-1252, which “Mechanism of inhibition with respect to NADH (Lineweaver-Burk)” value (BpmFabI [1]) is on record?
A: Its value is “mixed inhibition”.

Q: What about the “Mechanism of inhibition with respect to crotonyl-CoA (Lineweaver-Burk)” value (BpmFabI [1]) of the same substance?
A: The value was “uncompetitive”.

Q: What about the IC50 (BpmFabI [1]; read-out: IC50 for inhibition of BpmFabI) of the same substance?
A: The IC50 was 9.6 nM.

Q: What about the “Activity against drug resistant staphylococci” value [2] of the same substance?
A: The value was “potent”.

Q: What about the ΔTm (BpmFabI [3]) of the same substance?
A: The ΔTm was 12.76 ± 1.26 °C and 11.61 ± 0.10 °C.

Q: What about the MIC50 (S. aureus) of the same substance?
A: The MIC50 was 2 to 120 ng/mL.
